Values quoted from earlier work as cited in patent publication US20240397917A1, “ANIMAL PRODUCTION METHOD” (DSM IP ASSETS B.V., priority 2021, published 2024).

Assays:
[1] = in vivo
[2] = per 1% increase in plasma levels of 25-OH-D3; average of broiler trials

absorption (at the same level of inclusion in feed): 74.9% | absorption in the intestine in comparison to Vitamin D3 (when fed): more efficient absorption | excretion in comparison to Vitamin D3 (when fed): less excretion | retention in comparison to Vitamin D3 (when fed): greater retention
SMILES: C=C1CC[C@H](O)C/C1=C/C=C1\CCC[C@]2(C)[C@@H]([C@H](C)CCCC(C)(C)O)CC[C@@H]12 [HyD, calcidiol]
dose without toxic effects [1]: up to 10 times its recommended dose | improvement in ADG [2]: 0.029% | improvement in bone strength [2]: 0.173% | improvement in breast meat yield [2]: 0.008% | improvement in gait score [2]: 0.296%
